molecular target: T1, human TRPV4 (Homo sapiens, UniProt Q9HBA0); experiment: FLIPR assay for hTRPV4 expressed in BHK cells: inhibition of Agonist Compound-induced calcium signal; type: cell-based; details: hTRPV4 in BHK/AC9 cells, FLIPR calcium signal, agonist at EC80; reported as range class; read-out: IC50
T1 construct: expressed in transfected cells; host or cells: BHK/AC9 cells transduced with BacMam virus
In short: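 BHK/AC9 cells transduced with BacMam human TRPV4 (MOI 78), plated 15,000 per well and cultured 24 h at 37° C. Loaded with 2 μM Fluo-4 AM plus 500 μM Brilliant Black in HBSS for 1-1.5 h at room temperature in the dark; intracellular calcium signal read by FLIPR fluorescence.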

T1 sequence (Q9HBA0 whole entry): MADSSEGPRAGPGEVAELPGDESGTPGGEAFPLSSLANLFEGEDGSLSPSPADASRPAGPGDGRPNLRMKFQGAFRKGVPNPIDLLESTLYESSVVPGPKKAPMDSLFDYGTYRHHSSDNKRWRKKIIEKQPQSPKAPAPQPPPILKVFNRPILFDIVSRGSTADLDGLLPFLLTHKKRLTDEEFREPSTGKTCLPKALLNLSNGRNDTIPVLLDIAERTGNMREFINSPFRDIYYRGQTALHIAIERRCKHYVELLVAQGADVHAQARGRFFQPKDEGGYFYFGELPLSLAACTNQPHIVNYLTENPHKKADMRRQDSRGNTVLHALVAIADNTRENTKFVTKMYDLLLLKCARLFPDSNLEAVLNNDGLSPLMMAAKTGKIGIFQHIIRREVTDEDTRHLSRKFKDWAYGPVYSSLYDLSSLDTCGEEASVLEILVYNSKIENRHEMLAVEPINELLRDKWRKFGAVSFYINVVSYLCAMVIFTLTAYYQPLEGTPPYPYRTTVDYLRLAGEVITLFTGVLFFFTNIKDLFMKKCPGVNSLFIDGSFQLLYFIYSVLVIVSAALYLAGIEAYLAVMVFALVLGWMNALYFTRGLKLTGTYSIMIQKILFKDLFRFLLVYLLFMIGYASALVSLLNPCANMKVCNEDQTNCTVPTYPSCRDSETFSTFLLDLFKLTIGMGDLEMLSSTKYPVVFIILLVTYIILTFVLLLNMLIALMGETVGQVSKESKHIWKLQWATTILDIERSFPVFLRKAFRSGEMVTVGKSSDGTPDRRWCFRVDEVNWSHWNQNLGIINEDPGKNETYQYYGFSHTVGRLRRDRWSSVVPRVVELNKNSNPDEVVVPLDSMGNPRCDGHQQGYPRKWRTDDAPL

Structure (SMILES) | IC50 [nM]
Cc1ccc(S(=O)(=O)N2C[C@H](Oc3ccc(C#N)nc3)[C@](O)(CO)C2)c(Cl)c1 [Example 75, 5-(((3S,4R)-1-((2-chloro-4-methylphenyl)sulfonyl)-4-hydroxy-4-(hydroxymethyl)pyrrolidin-3-yl)oxy)picolinonitrile] | 10 to 100
N#Cc1ccc(O[C@H]2CN(S(=O)(=O)c3c(Cl)cc(Cl)cc3Cl)C[C@@]2(O)CO)cn1 [Example 76, 5-(((3S,4R)-4-hydroxy-4-(hydroxymethyl)-1-((2,4,6-trichlorophenyl)sulfonyl)pyrrolidin-3yl)oxy)picolinonitrile] | 10 to 100
N#Cc1ccc(O[C@H]2CN(S(=O)(=O)c3c(Cl)cc(Cl)cc3Cl)C[C@@]2(O)CO)cc1F [Example 77, 2-fluoro-4-(((3S,4R)-4-hydroxy-4-(hydroxymethyl)-1-((2,4,6-trichlorophenyl)sulfonyl)pyrrolidin-3-yl)oxy)benzonitrile] | 10 to 100
Cc1ccc(S(=O)(=O)N2C[C@H](Oc3ccc(C#N)c(F)c3)[C@](O)(CO)C2)c(Cl)c1 [Example 78, 4-(((3S,4R)-1-((2-chloro-4-methylphenyl)sulfonyl)-4-hydroxy-4-(hydroxymethyl)pyrrolidin-3-yl)oxy)-2-fluorobenzonitrile] | 0.1 to 10
N#Cc1ccc(S(=O)(=O)N2C[C@H](Oc3ccc(C#N)c(F)c3)[C@](O)(CO)C2)cn1 [Example 79, 5-(((3R,4S)-4-(4-cyano-3-fluorophenoxy)-3-hydroxy-3-(hydroxymethyl)pyrrolidin-1-yl)sulfonyl)picolinonitrile] | 10 to 100
Cc1cc(C#N)ccc1S(=O)(=O)N1C[C@H](Oc2ccc(C#N)c(F)c2)[C@](O)(CO)C1 [Example 80, 4-(((3S,4R)-1-((4-cyano-2-methylphenyl)sulfonyl)-4-hydroxy-4-(hydroxymethyl)pyrrolidin-3-yl)oxy)-2-fluorobenzonitrile] | 0.1 to 10
Cc1cc(C(F)(F)F)ccc1S(=O)(=O)N1C[C@H](Oc2ccc(C#N)c(F)c2)[C@](O)(CO)C1 [Example 81, 2-fluoro-4-(((3S,4R)-4-hydroxy-4-(hydroxymethyl)-1-((2-methyl-4-(trifluoromethyl)phenyl)sulfonyl)pyrrolidin-3-yl)oxy)benzonitrile] | 10 to 100
N#Cc1ccc(S(=O)(=O)N2C[C@H](Oc3cc(F)c(C#N)cc3F)[C@](O)(CO)C2)cn1 [Example 82, 5-(((3R,4S)-4-(4-cyano-2,5-difluorophenoxy)-3-hydroxy-3-(hydroxymethyl)pyrrolidin-1-yl)sulfonyl)picolinonitrile] | 10 to 100
Cc1nc(C(F)(F)F)ccc1S(=O)(=O)N1C[C@H](Oc2ccc(C#N)c(F)c2)[C@](O)(CO)C1 [Example 83, 2-fluoro-4-(((3S,4R)-4-hydroxy-4-(hydroxymethyl)-1-((2-methyl-6-(trifluoromethyl)pyridin-3-yl)sulfonyl)pyrrolidin-3-yl)oxy)benzonitrile] | 10 to 100
N#Cc1ccc(O[C@H]2CN(S(=O)(=O)c3ccc(C(F)(F)F)cn3)C[C@@]2(O)CO)cc1F [Example 84, 2-fluoro-4-(((3S,4R)-4-hydroxy-4-(hydroxymethyl)-1-((5-(trifluoromethyl)pyridin-2-yl)sulfonyl)pyrrolidin-3-yl)oxy)benzonitrile] | 10 to 100
N#Cc1ccc(O[C@H]2CN(S(=O)(=O)c3ccccc3Cl)C[C@@]2(O)CO)cc1F [Example 85, 4-(((3S,4R)-1-((2-chlorophenyl)sulfonyl)-4-hydroxy-4-(hydroxymethyl)pyrrolidin-3-yl)oxy)-2-fluorobenzonitrile] | 10 to 100
N#Cc1ccc(O[C@H]2CN(S(=O)(=O)c3ccc(Cl)s3)C[C@@]2(O)CO)cc1F [Example 86, 4-(((3S,4R)-1-((5-chlorothiophen-2-yl)sulfonyl)-4-hydroxy-4-(hydroxymethyl)pyrrolidin-3-yl)oxy)-2-fluorobenzonitrile] | 10 to 100
Cc1nc(C(F)(F)F)c(S(=O)(=O)N2C[C@H](Oc3ccc(C#N)c(F)c3)[C@](O)(CO)C2)s1 [Example 87, 2-fluoro-4-(((3S,4R)-4-hydroxy-4-(hydroxymethyl)-1-((2-methyl-4-(trifluoromethyl)thiazol-5-yl)sulfonyl)pyrrolidin-3-yl)oxy)benzonitrile] | 10 to 100
N#Cc1ccc(O[C@H]2CN(S(=O)(=O)c3sc(Cl)nc3Cl)C[C@@]2(O)CO)cc1F [Example 88, 4-(((3S,4R)-1-((2,4-dichlorothiazol-5-yl)sulfonyl)-4-hydroxy-4-(hydroxymethyl)pyrrolidin-3-yl)oxy)-2-fluorobenzonitrile] | 10 to 100
Cn1ncc(Cl)c1S(=O)(=O)N1C[C@H](Oc2ccc(C#N)c(F)c2)[C@](O)(CO)C1 [Example 89, 4-(((3S,4R)-1-((4-chloro-1-methyl-1H-pyrazol-5-yl)sulfonyl)-4-hydroxy-4-(hydroxymethyl)pyrrolidin-3-yl)oxy)-2-fluorobenzonitrile] | 10 to 100
N#Cc1ccc(O[C@H]2CN(S(=O)(=O)c3c(Cl)nc4sccn34)C[C@@]2(O)CO)cc1F [Example 90, 4-(((3S,4R)-1-((6-chloroimidazo[2,1-b]thiazol-5-yl)sulfonyl)-4-hydroxy-4-(hydroxymethyl)pyrrolidin-3-yl)oxy)-2-fluorobenzonitrile] | 10 to 100

Structure (SMILES) | IC50 [nM]
N#Cc1ccc(O[C@H]2CN(S(=O)(=O)c3ccc(Cl)nc3)C[C@@]2(O)CO)cc1F [Example 91, 4-(((3S,4R)-1-((6-chloropyridin-3-yl)sulfonyl)-4-hydroxy-4-(hydroxymethyl)pyrrolidin-3-yl)oxy)-2-fluorobenzonitrile] | 10 to 100
N#Cc1ccc(O[C@H]2CN(S(=O)(=O)c3ccc(Cl)nc3Cl)C[C@@]2(O)CO)cc1F [Example 92, 4-(((3S,4R)-1-((2,6-dichloropyridin-3-yl)sulfonyl)-4-hydroxy-4-(hydroxymethyl)pyrrolidin-3-yl)oxy)-2-fluorobenzonitrile] | 0.1 to 10
C#Cc1ccccc1S(=O)(=O)N1C[C@H](Oc2ccc(C#N)c(F)c2)[C@](O)(CO)C1 [Example 93, 4-(((3S,4R)-1-((2-ethynylphenyl)sulfonyl)-4-hydroxy-4-(hydroxymethyl)pyrrolidin-3-yl)oxy)-2-fluorobenzonitrile] | 10 to 100
N#Cc1ccc(O[C@H]2CN(S(=O)(=O)c3cccc(Cl)c3Cl)C[C@@]2(O)CO)cc1F [Example 94, 4-(((3S,4R)-1-((2,3-dichlorophenyl)sulfonyl)-4-hydroxy-4-(hydroxymethyl)pyrrolidin-3-yl)oxy)-2-fluorobenzonitrile] | 10 to 100
N#Cc1ccc(O[C@H]2CN(S(=O)(=O)c3cccc(Cl)c3C#N)C[C@@]2(O)CO)cc1F [Example 95, 4-(((3S,4R)-1-((3-chloro-2-cyanophenyl)sulfonyl)-4-hydroxy-4-(hydroxymethyl)pyrrolidin-3-yl)oxy)-2-fluorobenzonitrile] | 0.1 to 10
N#Cc1ccc(O[C@H]2CN(S(=O)(=O)c3c(Cl)cc(C(F)(F)F)cc3Cl)C[C@@]2(O)CO)cc1F [Example 96, 4-(((3S,4R)-1-((2,6-dichloro-4-(trifluoromethyl)phenyl)sulfonyl)-4-hydroxy-4-(hydroxymethyl)pyrrolidin-3-yl)oxy)-2-fluorobenzonitrile] | 10 to 100
N#Cc1ccc(S(=O)(=O)N2C[C@H](Oc3ccc(C#N)c(F)c3)[C@](O)(CO)C2)c(Cl)c1 [Example 97, 4-(((3S,4R)-1-((2-chloro-4-cyanophenyl)sulfonyl)-4-hydroxy-4-(hydroxymethyl)pyrrolidin-3-yl)oxy)-2-fluorobenzonitrile] | 0.1 to 10
N#Cc1ccc(O[C@H]2CN(S(=O)(=O)c3ccc(C(F)F)cc3)C[C@@]2(O)CO)cc1F [Example 98, 4-(((3S,4R)-1-((4-(difluoromethyl)phenyl)sulfonyl)-4-hydroxy-4-(hydroxymethyl)pyrrolidin-3-yl)oxy)-2-fluorobenzonitrile] | 10 to 100
N#Cc1ccc(O[C@H]2CN(S(=O)(=O)c3ccc(Br)nc3)C[C@@]2(O)CO)cc1F [Example 99, 4-(((3S,4R)-1-((6-bromopyridin-3-yl)sulfonyl)-4-hydroxy-4-(hydroxymethyl)pyrrolidin-3-yl)oxy)-2-fluorobenzonitrile] | 10 to 100
N#Cc1ccc(O[C@H]2CN(S(=O)(=O)c3ccc(C(F)(F)F)nc3Cl)C[C@@]2(O)CO)cc1F [Example 100, 4-(((3S,4R)-1-((2-chloro-6-(trifluoromethyl)pyridin-3-yl)sulfonyl)-4-hydroxy-4-(hydroxymethyl)pyrrolidin-3-yl)oxy)-2-fluorobenzonitrile] | 0.1 to 10
N#Cc1ccc(O[C@H]2CN(S(=O)(=O)c3ccc(Cl)cc3)C[C@@]2(O)CO)cc1F [Example 101, 4-(((3S,4R)-1-((4-chlorophenyl)sulfonyl)-4-hydroxy-4-(hydroxymethyl)pyrrolidin-3-yl)oxy)-2-fluorobenzonitrile] | 10 to 100
N#Cc1ccc(O[C@H]2CN(S(=O)(=O)c3ccc(Br)cc3)C[C@@]2(O)CO)cc1F [Example 102, 4-(((3S,4R)-1-((4-bromophenyl)sulfonyl)-4-hydroxy-4-(hydroxymethyl)pyrrolidin-3-yl)oxy)-2-fluorobenzonitrile] | 10 to 100
N#Cc1ccc(O[C@H]2CN(S(=O)(=O)c3ccc(I)cc3)C[C@@]2(O)CO)cc1F [Example 103, 2-fluoro-4-(((3S,4R)-4-hydroxy-4-(hydroxymethyl)-1-((4-iodophenyl)sulfonyl)pyrrolidin-3-yl)oxy)benzonitrile] | 10 to 100
COc1cc(C#N)ccc1S(=O)(=O)N1C[C@H](Oc2ccc(C#N)c(F)c2)[C@](O)(CO)C1 [Example 104, 4-(((3S,4R)-1-((4-cyano-2-methoxyphenyl)sulfonyl)-4-hydroxy-4-(hydroxymethyl)pyrrolidin-3-yl)oxy)-2-fluorobenzonitrile] | 10 to 100
N#Cc1ccc(O[C@H]2CN(S(=O)(=O)c3ccc(Br)cn3)C[C@@]2(O)CO)cc1F [Example 105, 4-(((3S,4R)-1-((5-bromopyridin-2-yl)sulfonyl)-4-hydroxy-4-(hydroxymethyl)pyrrolidin-3-yl)oxy)-2-fluorobenzonitrile] | 10 to 100

— patent US11229623B2 (GlaxoSmithKline Intellectual Property (No.2) Limited, priority 2016, dated 2022)
